Measured values reported in patent US20100168087A1, “BENZO[1,2,3]THIADIAZINE DERIVATES” (priority 2006, published 2010).

What was measured:
male Sprague-Dawley rats = test: elevated maze test in the rat; format: in vivo; conditions: per os, 60-min pretreatment, 5-min measurement, time spent in the open arms and number of entries into the open arms
Experimental: Pharmacological activity of the compounds of the general Formula (I) has been evaluated in elevated maze test in the rat.
The tests were carried out according to the method of S. Pellow and coworkers (J. Neurosci. Methods. 1985, 14, 149-167). During the test, a wooden-floor cross elevated by 50 cm from the floor was used. The length and the width of the arms of the cross were 100 and 15 cm, respectively. Two opposite arms of the cross are fitted at the ends and both sides with black plexyglass wall of 40 cm height (closed arms).
The central section of the cross measuring 15 by 15 cm is open. The other two opposite arms of the cross are not provided with walls (open arms).
The tests were carried out in male Sprague-Dawley rats weighing 200 to 220 g. After the 60-min pretreatment time (per os treatment), the animal was placed in the center of the maze. During the 5-min measurement time, four variables were recorded: the time spent in the open arms; the time spent in the closed arms; the number of entries into the open arms; the number of entries into the closed arms.
Animals normally avoid the open and light parts of the maze, thereby spending little time therein only. The anxiolytic effect of the compounds of the general Formula (I) is indicated by the increase in the time spent (in seconds) in the open arms and/or by the increase in the number of the entries into the open compartments of the maze. The minimum effective dose (MED) was determined for each tested compounds regarding the time spent in the open arms and the number of entries into the open arms. During the test, the known anxiolytic compound 1-methyl-5-phenyl-7-chloro-1,3-dihydro-2H-1,4-benzodiazepin-2-one (INN: diazepam) of the Formula (IV)
was used. Treatment of the animals was carried out orally with the doses 0.1, 0.3, 1.0, 3.0 for diazepam and 0.01, 0.1, 1.0 mg/kg for the compounds of the general Formula (I).

Molecule `COc1ccc2c(c1OC)S(=O)(=O)NN=C2C` [Example 9, 7,8-Dimethoxy-4-methylbenzo[1,2,3]thiadiazine-1,1-dioxide] has a melting point of 238 to 240 °C.
Molecule `CC1=NN(C)S(=O)(=O)c2c1cc(C)c(Cl)c2Cl` [Example 26, 7,8-Dichloro-2,4,6-trimethylbenzo[1,2,3]thiadiazine-1,1-dioxide] has a melting point of 179 to 180 °C.
With `CC1=NNS(=O)(=O)c2c(Cl)cccc21` [Example 6, 8-chloro-4-methylbenzo[1,2,3]thiadiazine-1,1-dioxide] the melting point was 206 to 207 °C.
In the case of `O=S1(=O)NN=Cc2ccc(Cl)cc21` [Example 15, 7-chlorobenzo[1,2,3]thiadiazine-1,1-dioxide], the melting point is reported as 221 to 223 °C.
In the case of `COc1ccc2c(c1Cl)S(=O)(=O)N(C)N=C2C` [Example 25, 8-chloro-7-methoxy-2,4-dimethylbenzo[1,2,3]thiadiazine-1,1-dioxide], the melting point is reported as 151 to 152 °C.
For `COc1ccc2c(c1)S(=O)(=O)NN=C2C` [Example 14, 4-Methyl-7-methoxybenzo[1,2,3]thiadiazine-1,1-dioxide], the melting point was 174 to 176 °C.
In the case of `COc1cccc2c1S(=O)(=O)NN=C2C` [Example 8, 4-Methyl-8-methoxybenzo[1,2,3]thiadiazine-1,1-dioxide], the melting point is reported as 194 to 197 °C.
With `CC1=NNS(=O)(=O)c2c1ccc(Cl)c2Cl` [Example 3, 7,8-Dichloro-4-methylbenzo[1,2,3]tiadiazine-1,1-dioxide] the “MED (minimum effective dose), anxiolytic effect in elevated maze test” value (shortened to “MED (minimum effective dose)”) (male Sprague-Dawley rats) was “≦0.01 mg/kg p.o”.
In the case of `CC1=NNS(=O)(=O)c2ccccc21` [Example 13, 4-Methylbenzo[1,2,3]thiadiazine-1,1-dioxide], the melting point is reported as 183 to 185 °C.
In the case of `CC1=NNS(=O)(=O)c2c(Cl)c(Cl)cc(C)c21` [Example 5, 7,8-Dichloro-4,5-dimethylbenzo[1,2,3]thiadiazine-1,1-dioxide], the “MED (minimum effective dose)” value (male Sprague-Dawley rats) is reported as “≦0.01 mg/kg p.o”.
With `CN1N=Cc2ccc(Cl)c(Cl)c2S1(=O)=O` [Example 20, 7,8-Dichloro-2-methylbenzo[1,2,3]thiadiazine-1,1-dioxide] the melting point was 120 to 121 °C and the “MED (minimum effective dose)” value (male Sprague-Dawley rats) was “≦0.01 mg/kg p.o”.
In the case of `CC1=NN(C)S(=O)(=O)c2c(Cl)c(Cl)cc(C)c21` [Example 24, 7,8-Dichloro-2,4,5-trimethylbenzo[1,2,3]thiadiazine-1,1-dioxide], the melting point is reported as 166 to 168 °C.
`O=S1(=O)NN=Cc2ccc(Cl)c(Cl)c21` [Example 11, 7,8-Dichlorobenzo[1,2,3]thiadiazine-1,1-dioxide] gave a melting point of 183 to 185 °C.
With `CC1=NNS(=O)(=O)c2cc(Cl)ccc21` [Example 1, 7-chloro-4-methylbenzo[1,2,3]thiadiazine-1,1-dioxide] the melting point was 187 to 189 °C.
For `CN1C(=O)CN=C(c2ccccc2)c2cc(Cl)ccc21` [Diazepam, 1-methyl-5-phenyl-7-chloro-1,3-dihydro-2H-1,4-benzodiazepin-2-one, reference compound], the “MED (minimum effective dose)” value (male Sprague-Dawley rats) was 1.00 mg/kg p.o.
`CCC1=NN(CC)S(=O)(=O)c2c1ccc(Cl)c2Cl` [Example 19, 2,4-Diethyl-7,8-dichlorobenzo[1,2,3]thiadiazine-1,1-dioxide] gave a melting point of 79 to 82 °C.
In the case of `COc1ccc2c(c1)C=NN(C)S2(=O)=O` [Example 22, 2-Methyl-6-methoxybenzo[1,2,3]thiadiazine-1,1-dioxide], the melting point is reported as 99 to 101 °C.
Molecule `CN1N=Cc2ccccc2S1(=O)=O` [Example 23, 2-Methylbenzo[1,2,3]thiadiazine-1,1-dioxide] has a melting point of 79 to 80 °C.
With `CCC1=NNS(=O)(=O)c2c1ccc(Cl)c2Cl` [Example 4, 7,8-Dichloro-4-ethylbenzo[1,2,3]thiadiazine-1,1-dioxide] the melting point was 238 to 239 °C.
`COc1ccc2c(c1Cl)S(=O)(=O)NN=C2C` [Example 7, 8-chloro-4-methyl-7-methoxybenzo[1,2,3]thiadiazine-1,1-dioxide] gave a melting point of 227 to 229 °C.
Work on `CC1=NNS(=O)(=O)c2c1cc(C)c(Cl)c2Cl` [Example 10, 7,8-Dichloro-4,6-dimethylbenzo[1,2,3]thiadiazine-1,1-dioxide] yielded a melting point of 224 to 226 °C.
In the case of `CCC1=NN(C)S(=O)(=O)c2c1ccc(Cl)c2Cl` [Example 18, 7,8-Dichloro-4-ethyl-2-methylbenzo[1,2,3]thiadiazine-1,1-dioxide], the melting point is reported as 119 to 120 °C.
`COc1ccc2c(c1)C=NNS2(=O)=O` [Example 12, 6-Methoxybenzo[1,2,3]thiadiazine-1,1-dioxide] showed a melting point of 163 to 164 °C.
With `CN1N=Cc2ccc(Cl)cc2S1(=O)=O` [Example 21, 7-chloro-2-methylbenzo[1,2,3]thiadiazine-1,1-dioxide] the melting point was 131 to 133 °C.
Molecule `COc1ccc2c(c1Cl)S(=O)(=O)N(C)N=C2` [Example 28, 8-chloro-2-methyl-7-methoxybenzo[1,2,3]thiadiazine-1,1-dioxide] has a melting point of 173 to 175 °C.
Molecule `CCC1=NNS(=O)(=O)c2cc(Cl)ccc21` [Example 2, 4-Ethyl-7-chlorobenzo[1,2,3]thiadiazine-1,1-dioxide] has a melting point of 196 to 198 °C.
